Source: patent publication US20030215878A1, “Novel G protein-coupled purinergic receptor, GAVE17” (priority 2002, published 2003)

Assays:
GAVE17 [1] = molecular target: T1, GAVE17 (Homo sapiens, UniProt Q9BPV8); assay: Agonist assay utilizing FLIPR, NIH 3T3 cell line transfected with hGAVE17 (Ca2+ fluorescence); type: cell-based; set-up: host or cells: Gα16-coupled NIH 3T3; conditions: NIH313 cell line transfected with PEAK8 expression vector comprising SEQ ID NO:1; FIGS. 3a-d
T1 sequence (Q9BPV8 1-333 isoform Q9BPV8-2): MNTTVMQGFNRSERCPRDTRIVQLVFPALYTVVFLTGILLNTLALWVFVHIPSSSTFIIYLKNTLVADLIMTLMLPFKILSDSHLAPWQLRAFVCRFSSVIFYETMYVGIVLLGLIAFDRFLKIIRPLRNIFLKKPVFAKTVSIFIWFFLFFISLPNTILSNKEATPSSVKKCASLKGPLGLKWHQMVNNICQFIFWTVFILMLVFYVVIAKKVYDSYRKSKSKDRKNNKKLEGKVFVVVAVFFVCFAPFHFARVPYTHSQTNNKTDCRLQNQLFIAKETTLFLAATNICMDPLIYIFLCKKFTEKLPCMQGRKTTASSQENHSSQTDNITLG
Excerpt: To screen for agonists of human GAVE17, hGAVE17 is coupled artificially to a Gq mechanism. Activation of the Gq mechanism stimulates the release of Ca^2+ from sarcoplasmic reticulum vesicles within the cell. The Ca^2+ is released into the cytoplasm where it can be detected using Ca^2+ chelating dyes. A Fluorometric Imaging Plate Reader or FLIPR® apparatus (Molecular Devices) is used to monitor any resulting changes in fluorescence. The activity of an agonist is reflected by an increase in fluorescence.
In a particular example, NIH 3T3 cells expressing hGAVE17 are pre-engineered to express an indiscriminate form of Gq protein (Gα16). To prepare such cells, Gα16-coupled NIH 3T3 cells are obtained commercially (Molecular Devices LIVEWARE™ cells, Catalog No. RD-HGA16) and the protocol in Example 2 followed to facilitate expression of hGAVE17 in those cells.
The cells are maintained in log phase of growth at 37° C. and 5% CO2 in F12 Ham's media (Gibco/BRL, Catalog No. 11765-054) containing 10% fetal bovine serum, 100 lU/ml penicillin (Gibco/BRL, Catalog No. 15140-148), 100 μg/ml streptomycin (Catalog No. 15140-148, Gibco/BRL), 400 μg/ml genetecin (G418) (Gibco/BRL, Catalog No. 10131-035) and 200 μg/ml zeocin (Invitrogen, Catalog No. R250-05). One day prior to an assay, 12,500 cells/well of the NIH 3T3 cells are plated onto 384-well clear-bottomed assay plates with a well volume of 50 μl (Greiner/Marsh, Catalog No. N58102) using a 96/384 Multidrop device (Labsystems, Type 832). The cells are incubated at 37° C. in a humidified 5% CO2 incubator (Forma Scientific CO2 water-jacketed incubator Model 3110).
The following stock solutions are prepared: a 1 M stock solution of Hepes (pH 7.5) (Gibco/BRL, Catalog No. 15630-080); a 250 mM stock solution of probenicid (Sigma, Catalog No. P8761) made in 1 N NaOH; and a 1 mM stock solution of Fluo 4-AM Dye (Molecular Probes, Catalog No. F1 4202) made in DMSO (Sigma D2650). Reaction buffer is prepared with 1000 ml Hank's balanced salt solution (Fisher/Mediatech, Catalog No. MT21023), 20 ml of the 1 M Hepes stock solution and 10 ml of the 250 mM probenicid stock solution. […]
A compound library containing possible agonists such as various purine derivatives or purine mimetics is tested at a concentration of 10 μM in physiological salt buffer. Changes in fluorescence are measured for 10 seconds prior to compound addition. After the addition of the compound, fluorescence is measured every second for the first minute followed by exposures taken every six seconds for a total experimental analysis time of three minutes. […]

GAVE17 [2] = molecular target: T1, GAVE17; assay: Nucleotide ligand activation of and affinity for GAVE17 in transformed NIH 3T3 cells; type: cell-based; set-up: expressed in transfected cells; host or cells: NIH 3T3; conditions: for Kd: transformed NIH 3T3 cells

Row | SMILES | agonist activity (FLIPR units vs log molar concentration) (GAVE17 [1]) | activation of GAVE17 (GAVE17 [2]) | Kd (GAVE17 [2]) [µM]
1 | Nc1ncnc2c1ncn2[C@@H]1O[C@H](COP(=O)(O)OP(=O)(O)O)[C@@H](O)[C@H]1O [ADP] | agonist activity | activate | 26
2 | Nc1ncnc2c1ncn2[C@@H]1O[C@H](COP(=O)(O)OP(=O)(O)OP(=O)(O)O)[C@@H](O)[C@H]1O [ATP] | agonist activity | activate | 0.8
3 | Nc1nc2c(ncn2[C@@H]2O[C@H](COP(=O)(O)OP(=O)(O)O)[C@@H](O)[C@H]2O)c(=O)[nH]1 [GDP] |  | activate | 65
4 | O=c1ccn([C@@H]2O[C@H](COP(=O)(O)OP(=O)(O)O)[C@@H](O)[C@H]2O)c(=O)[nH]1 [UDP] | agonist activity | activate | 10
5 | O=c1ccn([C@@H]2O[C@H](COP(=O)(O)OP(=O)(O)OP(=O)(O)O)[C@@H](O)[C@H]2O)c(=O)[nH]1 [UTP] | agonist activity | activate | 6.9
